# Where a name gives a salt, the structure may show the parent alone.
# What was measured:
# [1] = human, in vivo, po
# Experimental: All procedures were done in accordance with the University of South Florida Institutional Review Board (IRB) guidelines. BHB salts and MCT oil were given to human subjects as a ketogenic food supplement and blood measurements of BHB and/or glucose were taken at predetermined time points.
# To determine the time course of ketosis, the subjects were orally given the test substances of a BHB salt solution (450 mL; 4%, approximately 18 g), an MCT oil (30 mL, approximately 30 g), or a combination of the a BHB salt solution and an MCT oil. Blood concentrations of glucose and BHB were determined utilizing a commercially available glucose/ketone monitoring system (Precision Xtra® blood glucose and ketone meter) at defined time points (0, 15, 30, 60, 120, 240 and 480 minutes following ingestion of the test substances).
# The subject was administered a BHB salt solution containing 4% Na^+/K^+ BHB salts in solution, an MCT oil, or a combination of the 4% Na^+/K^+ BHB salts and the MCT oil. At 15, 30, 60, 120, 240 and 480 minutes after administration, blood was drawn. The subject returned on days 2 and 3 for additional supplements, with blood taken as on day 1. Levels of BHB in the blood were determined as described above.
# [2] = Blood βHB levels of a fasted 70 kg subject after oral administration; type: in vivo, human; set-up: unit: mM; details: for Blood βHB levels Mean: 70 kg male, mean of 3 days; for Blood βHB levels Day 1 / Blood βHB levels Day 2 / Blood βHB levels Day 3: 70 kg person
# Experimental: (§1) To determine the time course of ketosis, the subjects were orally given the test substances of a BHB salt solution (450 mL; 4%, approximately 18 g), an MCT oil (30 mL, approximately 30 g), or a combination of the a BHB salt solution and an MCT oil. Blood concentrations of glucose and BHB were determined utilizing a commercially available glucose/ketone monitoring system (Precision Xtra® blood glucose and ketone meter) at defined time points (0, 15, 30, 60, 120, 240 and 480 minutes following ingestion of the test substances). Subject (70 kg) was instructed to fast for three days, and was given a single daily oral administration of either ßHB salts (4% solution containing 11 grams sodium ßHB and 7.1 grams potassium ßHB), MCT oil or ßHB salts+MCT oil at 15, 30, 60, 120, 240 and 480 minutes on 3 consecutive days. At 15, 30, 60, 120, 240 and 480 minutes after administration, blood was drawn. The subject returned on days 2 and 3 for additional supplements, with blood taken as on day 1, as in Example 1.
# [3] = Blood glucose levels of a fasted 70 kg subject after oral administration; type: in vivo, human; details: for Blood glucose levels Mean: 70 kg male, mean of 3 days; for Blood glucose levels Day 1 / Blood glucose levels Day 2 / Blood glucose levels Day 3: 70 kg person
# Experimental: as §1, with “1. […] Blood glucose levels were determined as described above.” for “1.”
# [4] = Blood glucose levels in rats after ketone supplementation; type: in vivo, Sprague-Dawley rats
# Text: (§2) Subject rats (n=74), 275-325 grams, were randomly assigned to a control group (no supplementation) or to one of three ketone precursor groups: medium chain triglyceride (MCT) oil (MO), mineral (Na^+/K+) salt of β-hydroxybutyrate (βHB) (SO), or SO+MO 1:1 combination (SM). The ketone mineral salt was developed and synthesized by Dr. Patrick Arnold from Prototype Nutrition. Pure pharmaceutical grade MCT oil was purchased from Now Foods (Bloomingdale, Ill.). SM was mixed at a 1:1 ratio.
# (§3) Rats were supplemented with medium chain triglyceride (MCT) oil (MO), or a mineral (Na+/K+) salt of β-hydroxybutyrate (βHB) (SO), or SO+MO 1:1 mixture (SM) and force fed a daily at a dose of 5 g/kg body weight on days 1-14, followed by a 10 g/kg dose on days 15-28 rats Supplementation was given between 10 am and […] daily to eliminate variance based on regular eating patterns. Diets were not restricted for this study.
# Once a week, animals were fasted for 4 hours prior to intragastric gavage of the appropriate ketone supplement. The four hour food restriction was used to eliminate normal variance in blood glucose and ketone levels due to food consumption. Whole blood samples (10 μL) were acquired from the saphenous vein of the subjects for analysis of glucose and βHB utilizing the commercially available glucose and ketone monitoring system Precision Xtra™ (Abbott Laboratories, Abbott Park, Ill.) at time intervals of 0, 0.5, 1, 4, 8, and 12 hours after ketone precursor supplements were administered, or until βHB returned to baseline. On Day 0 (Week 0) and Day 28 (Week 4), whole blood samples (10 μL) were acquired for analysis of total cholesterol, HDL, and triglycerides for a lipid panel utilizing the commercially available home cholesterol analyzer Cardio Chek™ (Polymer Technology Systems, Inc., Indianapolis, Ind.) at time 0. Animals were weighed once per week to maintain accurate dosage using the Mittler Toledo SB 16001 scales.
# [5] = set-up: species or system Sprague-Dawley rats; details: rat, in vivo
# Text: as §2, §3
# Once a week, animals were fasted for 4 hours prior to intragastric gavage of the appropriate ketone supplement. The four hour food restriction was used to eliminate normal variance in blood glucose and ketone levels due to food consumption. […]
# [6] = Change of body weight in rats during 28 days of ketone supplementation; type: in vivo, Sprague-Dawley rats; details: daily for 28 days
# Experimental: Diets were not restricted for this study. Once a week, animals were fasted for 4 hours prior to intragastric gavage of the appropriate ketone supplement. The four hour food restriction was used to eliminate normal variance in blood glucose and ketone levels due to food consumption. […] Animals were weighed once per week to maintain accurate dosage using the […] Toledo SB 16001 scales. Rats were administered SO, MO, or SM daily for 28 days as described above. Each week the animals were weighed. […] The control animals continued to gain weight throughout the month-long study. In comparison, the ketone supplement treatment groups all gained less weight. […] A key finding of this study is that the SM group was able to limit weight gain in an unexpected way as the amounts of BHB and MCT when combined were much lower than the amounts of those ingredients used in the SO and MO treatment groups. This effect on body weight gain is likely due to appetite suppression caused by the supplements, rather than a reduced intake of the supplement itself, as force feeding controlled for dosing.
compound,measurement,setting,value
"CC(O)CC(=O)O (stereo not drawn) [BHB salt (450 mL), β-hydroxybutyrate]",Elevation in BHB levels (in words),[1],higher elevation in BHB levels than MCT oil alone
same,Blood βHB levels Mean,[2]; time 0 minutes,0.87
same,Blood βHB levels Mean,[2]; time 30 minutes,1.73
same,Blood βHB levels Mean,[2]; time 60 minutes,2.77
same,Blood βHB levels Mean,[2]; time 120 minutes,1.73
same,Blood βHB levels Mean,[2]; time 240 minutes,1.53
same,Blood βHB levels Mean,[2]; time 480 minutes,1.53
same,Blood βHB levels Day 1,[2]; time 0 minutes,0.2
same,Blood βHB levels Day 2,[2]; time 0 minutes,0.6
same,Blood βHB levels Day 3,[2]; time 0 minutes,1.8
same,Blood βHB levels Day 1,[2]; time 30 minutes,0.7
same,Blood βHB levels Day 2,[2]; time 30 minutes,1.8
same,Blood βHB levels Day 3,[2]; time 30 minutes,2.7
same,Blood βHB levels Day 1,[2]; time 60 minutes,1.1
same,Blood βHB levels Day 2,[2]; time 60 minutes,2.4
same,Blood βHB levels Day 3,[2]; time 60 minutes,4.8
same,Blood βHB levels Day 1,[2]; time 120 minutes,0.3
same,Blood βHB levels Day 2,[2]; time 120 minutes,1.6
same,Blood βHB levels Day 3,[2]; time 120 minutes,3.3
same,Blood βHB levels Day 1,[2]; time 240 minutes,0.4
same,Blood βHB levels Day 2,[2]; time 240 minutes,1.2
same,Blood βHB levels Day 3,[2]; time 240 minutes,3
same,Blood βHB levels Day 1,[2]; time 480 minutes,0.6
same,Blood βHB levels Day 2,[2]; time 480 minutes,1.6
same,Blood βHB levels Day 3,[2]; time 480 minutes,2.4
same,Blood glucose levels Mean,[3]; time 0 minutes,90.00
same,Blood glucose levels Mean,[3]; time 30 minutes,87.00
same,Blood glucose levels Mean,[3]; time 60 minutes,81.00
same,Blood glucose levels Mean,[3]; time 120 minutes,77.33
same,Blood glucose levels Mean,[3]; time 240 minutes,77.33
same,Blood glucose levels Mean,[3]; time 480 minutes,74.67
same,Blood glucose levels Day 1,[3]; time 0 minutes,100
same,Blood glucose levels Day 2,[3]; time 0 minutes,90
same,Blood glucose levels Day 3,[3]; time 0 minutes,80
same,Blood glucose levels Day 1,[3]; time 30 minutes,95
same,Blood glucose levels Day 2,[3]; time 30 minutes,95
same,Blood glucose levels Day 3,[3]; time 30 minutes,71
same,Blood glucose levels Day 1,[3]; time 60 minutes,85
same,Blood glucose levels Day 2,[3]; time 60 minutes,90
same,Blood glucose levels Day 3,[3]; time 60 minutes,68
same,Blood glucose levels Day 1,[3]; time 120 minutes,82
same,Blood glucose levels Day 2,[3]; time 120 minutes,85
same,Blood glucose levels Day 3,[3]; time 120 minutes,65
same,Blood glucose levels Day 1,[3]; time 240 minutes,80
same,Blood glucose levels Day 2,[3]; time 240 minutes,84
same,Blood glucose levels Day 3,[3]; time 240 minutes,68
same,Blood glucose levels Day 1,[3]; time 480 minutes,76
same,Blood glucose levels Day 2,[3]; time 480 minutes,80
same,Blood glucose levels Day 3,[3]; time 480 minutes,68
same,Blood glucose versus control (in words),"[4]; 5 g/kg, week 0",did not show any significant difference compared to control
same,Blood glucose versus control (in words),"[4]; 5 g/kg, week 1",began reducing glucose by 8 hours
same,Blood glucose versus control (in words),"[4]; 10 g/kg, week 2 onward",reduced glucose levels at 30 minutes through 8 hours
same,Triglyceride levels at week 4 compared with week 0,[5],mildly elevated
same,Body weight gain compared to controls (in words),[6],gained significantly less weight compared to controls
medium chain triglyceride (MCT) oil [MCT (30 mL)],Elevation in BHB levels (in words),[1],little elevation in BHB levels
same,Time of peak plasma BHB level after administration,[1],60 min
same,Triglyceride levels at week 4 compared with week 0,[5],little change
